Laboratory results taken from patent US9216173B2, “2-Pyridyl carboxamide-containing spleen tyrosine kinase (SYK) inhibitors” (Merck Sharp & Dohme Corp., priority 2011, dated 2015).

What follows are compounds tested against T1, recombinant human GST-SYK (Homo sapiens, UniProt P43405) (assay: Homogeneous Time-Resolved Fluorescence (HTRF) assay for the recombinant human Syk enzyme). Conditions: GST-hSYK 5 pM, ATP 25 μM, 10-dose titration 10 μM to 0.508 nM; read-out: IC50.
T1 construct: purchased Carna Biosciences 08-176
Assay type: biochemical
In short: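 GST-hSYK fusion phosphorylates a peptide for 45 min at room temperature. Quenched with EDTA buffer containing 2 nM Eu-anti-phosphotyrosine antibody and 70 nM SA-APC. HTRF signal read after 30 min.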

| SMILES | IC50 [µM] |
| --- | --- |
| Cc1ccc(Nc2cc(N[C@@H]3CCCC[C@@H]3N)cnc2C(N)=O)nc1C [Example 1.6, 5-{[(1R,2S)-2-aminocyclohexyl]amino}-3-[(5,6-dimethylpyridin-2-yl)amino)pyridine-2-carboxamide] | 0.00053 |

Same assay, conditions: GST-hSYK 5 pM, ATP 25 μM, 10-dose titration 10 μM to 0.508 nM; read-out: rhSYK Activity (IC50 rating)

| SMILES | IC50 [µM] |
| --- | --- |
| Cc1nc(Nc2cc(N[C@@H]3CCCC[C@@H]3N)cnc2C(N)=O)ccc1-c1ccc(-c2ncco2)cc1 [Example 3.30, 5-{[(1R,2S)-2-aminocyclohexyl]amino}-3-({6-methyl-5-[4-(1,3-oxazol-2-yl)phenyl]pyridin-2-yl}amino)pyridine-2-carboxamide] | < 0.01 |
| Cc1nc(Cl)cc(Nc2cc(N[C@@H]3CCCC[C@@H]3N)cnc2C(N)=O)n1 [Example 1.127, 5-{[(1R,2S)-2-aminocyclohexyl]amino}-3-[(6-chloro-2-methylpyrimidin-4-yl)amino]pyridine-2-carboxamide] | < 0.01 |
| Cc1ccc(Nc2cc(N[C@@H]3CCCC[C@@H]3N)cnc2C(N)=O)nc1C [Example 1.6, 5-{[(1R,2S)-2-aminocyclohexyl]amino}-3-[(5,6-dimethylpyridin-2-yl)amino)pyridine-2-carboxamide] | < 0.01 |
| Cc1cc(C(=O)O)cc(Nc2cc(N[C@@H]3CCCC[C@@H]3N)cnc2C(N)=O)n1 [Example 12, 2-[(5-{[(1R,2S)-2-aminocyclohexyl]amino}-2-carbamoylpyridin-3-yl)amino]-6-methylpyridine-4-carboxylic acid] | 0.01 to 0.1 |
| Cc1cc(C)nc(Nc2cc(NCCN)cnc2C(N)=O)c1 [Example 1.5, 5-[(2-aminoethyl)amino]-3-[(4,6-dimethylpyridin-2-yl)amino]pyridine-2-carboxamide] | < 0.01 |
| Cc1cc(C)nc(Nc2cc(NC[C@H](C)N)cnc2C(N)=O)c1 [Example 1.3, 5-{[(2S)-2-aminopropyl]amino}-3-[(4,6-dimethylpyridin-2-yl)amino]pyridine-2-carboxamide] | < 0.01 |
| NC(=O)c1ncc(N[C@@H]2CCCC[C@@H]2N)cc1Nc1ccnc(-n2nccn2)n1 [Example 1.122, 5-{[(1R,2S)-2-aminocyclohexyl]amino}-3-{[2-(2H-1,2,3-triazol-2-yl)pyrimidin-4-yl]amino}pyridine-2-carboxamide] | < 0.01 |
| COc1ccc(-c2ccc(Nc3cc(N[C@@H]4CCCC[C@@H]4N)cnc3C(N)=O)nc2C)cc1OC [Example 3.4, 5-{[(1R,2S)-2-aminocyclohexyl]amino}-3-{[5-(3,4-dimethoxyphenyl)-6-methylpyridin-2-yl]amino}pyridine-2-carboxamide] | < 0.01 |
| Cc1cc(C)nc(Nc2cc(NC(C)(C)CN)cnc2C(N)=O)c1 [Example 1.19, 5-[(2-amino-1,1-dimethylethyl)amino]-3-[(4,6-dimethylpyridin-2-yl)amino]pyridine-2-carboxamide] | 0.01 to 0.1 |
| Cc1cc(C)nc(Nc2cc(N[C@@H]3[C@H](N)CCCC3(F)F)cnc2C(N)=O)c1 [Example 2.5, 5-{[(1R,6R)-6-amino-2,2-difluorocyclohexyl]amino}-3-[(4,6-dimethylpyridin-2-yl)amino]pyridine-2-carboxamide] | < 0.01 |
| Cc1cc(C)nc(Nc2cc(NCC3(N)CCOCC3)cnc2C(N)=O)c1 [Example 1.34, 5-{[(4-aminotetrahydro-2H-pyran-4-yl)methyl]amino}-3-[(4,6-dimethylpyridin-2-yl)amino]pyridine-2-carboxamide] | 0.01 to 0.1 |
| NC(=O)c1ncc(N[C@@H]2CCCC[C@@H]2N)cc1Nc1ccn(Cc2ccccc2)n1 [Example 1.50, 5-{[(1R,2S)-2-aminocyclohexyl]amino}-3-[(1-benzyl-1H-pyrazol-3-yl)amino]pyridine-2-carboxamide] | 0.01 to 0.1 |
| COc1ncccc1-c1ccc(Nc2cc(N[C@@H]3CCCC[C@@H]3N)cnc2C(N)=O)nc1C [Example 3.26, 5-{[(1R,2S)-2-aminocyclohexyl]amino}-3-[(2′-methoxy-2-methyl-3,3′-bipyridin-6-yl)amino]pyridine-2-carboxamide] | < 0.01 |
| COC[C@H](N)CNc1cnc(C(N)=O)c(Nc2ccn(C)n2)c1 [Example 1.98, 5-{[(2R)-2-amino-3-methoxypropyl]amino}-3-[(1-methyl-1H-pyrazol-3-yl)amino]pyridine-2-carboxamide] | 0.1 to 1 |
